Values quoted from earlier work as cited in patent US20050143363A1, “Method for subretinal administration of therapeutics including steroids; method for localizing pharmacodynamic action at the choroid of the retina; and related methods for treatment and/or prevention of retinal diseases” (InnoRx, Inc., priority 2002, published 2005).

Details: 72 hours after injection into the vitreous; animal studies

share of the triamcinolone present in the vitreous that was associated with other tissues including the retina, pigment epithelium, and sclera: less than 1%
SMILES: C[C@]12C=CC(=O)C=C1CC[C@H]1[C@@H]3C[C@@H](O)[C@](O)(C(=O)CO)[C@@]3(C)C[C@H](O)[C@@]12F [triamcinolone]
